Experimental data as given in patent publication US20250275977A1, “DOSAGE REGIMENS FOR TREATMENT WITH DEUTERATED JAK INHIBITORS” (SUN PHARMACEUTICAL INDUSTRIES, INC., priority 2022, published 2025).

Legend:
Assay type in all cases: in vivo, human
[1] = test system: adult patients with moderate-to-severe alopecia areata; experiment: Phase 2a trial, safety: treatment emergent adverse events by patient
Method: (§1) A Phase 2a trial was conducted to evaluate the safety and efficacy of Compound (I) (CTP-543) in subjects with alopecia, with the primary efficacy analysis at week 24. The Phase 2a trial was a double-blind, randomized, placebo-controlled trial to evaluate the safety and efficacy of Compound (I) in adult patients with moderate-to-severe alopecia areata. Patients were sequentially randomized to receive one of three doses of Compound I as the phosphate salt (e.g., 10.5 mg of Compound (I) phosphate salt is equivalent 8 mg of Compound (I) free base). The doses of Compound (I) were 4, 8 (i.e., about 10.5 mg of Compound (I) phosphate salt), and 12 mg twice daily, and there was also a patient group receiving placebo. The primary outcome measure utilized the severity of alopecia tool (SALT) after 24 weeks of dosing.

[2] = test system: subjects with alopecia areata; experiment: Open-label extension study (OLE), SALT score after dose reduction
Method: In an ongoing open-label extension study, subjects who were previously enrolled in a qualifying clinical study (including the study described in Example 1) and received either a total daily dose of 16 mg of Compound (I) (CTP-543, phosphate salt), a total daily dose of 24 mg of CTP-543, or placebo, and completed through the 24-week treatment period, were eligible to enroll in an open-label extension study (OLE) and continue to receive treatment with CTP-543 phosphate. A total of 152 subjects were enrolled in the OLE. In the OLE, subjects received daily treatment with CTP-543 at a dose of 8 mg BID or 12 mg BID (see FIG. 8). Dose adjustments were allowed at the investigator's discretion. One subject enrolled in the OLE, who received a daily dose of 24 mg QD of CTP-543 for approximately 9 months (i.e., the 24-week study period and the initial 3 months of the OLE), experienced hair growth at that dose (SALT score of zero, i.e., full regrowth of hair prior to dose reduction). The subject then had their dose reduced to a daily dose of 8 mg BID of CTP-543 phosphate. After approximately 7 months in the OLE receiving the lower daily dose of 8 mg BID of CTP-543, the subject continued to substantially maintain hair regrowth, with a SALT score of 7.92.

[3] = test system: adult patients with moderate-to-severe alopecia areata; experiment: Phase 2a double-blind, randomized, placebo-controlled trial, efficacy by severity of alopecia tool (SALT); conditions: for patients who achieved a ≥50% reduction in their overall SALT score: week 24, relative to baseline; for difference from placebo on all SALT measures / patients who achieved a ≥75% reduction in their overall SALT score / patients who achieved a ≥90% reduction in their overall SALT score: week 24; for significant changes in SALT score compared to placebo observed starting at: p<0.05
From the text: The efficacy of treatment of hair loss disorders such as alopecia areata can be measured in a variety of ways, some of which are known in the art. For example, the “severity of alopecia tool”, otherwise known as SALT, is a validated assessment scale—developed by the National Alopecia Areata Foundation working committee—to evaluate the degree of hair loss. See, e.g., Olsen E A, Hordinsky M K, Price V H, et al. Alopecia areata investigational assessment guidelines—Part II. J Am Acad Dermatol 2004: 51: 440-447 (incorporated herein by reference). The SALT score is calculated for a patient by measuring the percentage of hair loss in each of the 4 areas of the scalp and adding the total to achieve a composite score. Hair regrowth is reflected by a decrease in the SALT score. For example, no hair on the scalp would have a SALT score of 100 while complete hair regrowth would be a SALT score of 0. In certain embodiments, methods of treatment as described herein can provide a SALT score improvement of at least 10 points after treatment (for example, from a SALT score of 100 prior to treatment to a SALT score of 90 after treatment). In further embodiments, methods of treatment as described herein can provide a SALT score improvement of at least 20 points, 30 points, 40 points, 50 points, 60 points, 70 points, 80 points, 90 points, or 100 points. In certain embodiments, methods of treatment as described herein can provide after treatment at least a 20% improvement from baseline in the patient's SALT score, or at least a 30% improvement from baseline in the patient's SALT score, or at least a 40% improvement from baseline in the patient's SALT score, or at least a 50% improvement from baseline in the patient's SALT score, or at least a 60% improvement from baseline in the patient's SALT score, or at least a 70% improvement from baseline in the patient's SALT score, or at least a 75% improvement from baseline in the patient's SALT score or at least a 80% improvement from baseline in the patient's SALT score, or at least a 90% improvement from baseline in the patient's SALT score.
as §1
Interim top line analysis for the 4 mg, 8 mg, and 12 mg cohorts is discussed below. The primary endpoint for the study was a 50% relative reduction in SALT between Week 24 and baseline.

[2H]C1([2H])C([C@@H](CC#N)n2cc(-c3ncnc4[nH]ccc34)cn2)C([2H])([2H])C([2H])([2H])C1([2H])[2H] [CTP-543, (R)-3-(4-(7H-pyrrolo[2,3-d]pyrimidin-4-yl)-1H-pyrazol-1-yl)-3-(cyclopentyl-2,2,3,3,4,4,5,5-d8)propanenitrile]
Acne, patients with event ([1]; 4 mg twice daily): 4 | Acne, percent of patients ([1]; 4 mg twice daily): (13.8%) | Blood creatine phosphokinase increased, patients with event ([1]; 4 mg twice daily): 3 | Blood creatine phosphokinase increased, percent of patients ([1]; 4 mg twice daily): (10.3%) | Cough, patients with event ([1]; 4 mg twice daily): 4 | Cough, percent of patients ([1]; 4 mg twice daily): (13.8%) | Diarrhoea, patients with event ([1]; 4 mg twice daily): 3 | Diarrhoea, percent of patients ([1]; 4 mg twice daily): (10.3%) | Folliculitis, patients with event ([1]; 4 mg twice daily): 3 | Folliculitis, percent of patients ([1]; 4 mg twice daily): (10.3%) | Headache, patients with event ([1]; 4 mg twice daily): 5 | Headache, percent of patients ([1]; 4 mg twice daily): (17.2%) | LDL increase, patients with event ([1]; 4 mg twice daily): 0 | Nasopharyngitis, patients with event ([1]; 4 mg twice daily): 3 | Nasopharyngitis, percent of patients ([1]; 4 mg twice daily): (10.3%) | Nausea, patients with event ([1]; 4 mg twice daily): 4 | Nausea, percent of patients ([1]; 4 mg twice daily): (13.8%) | Oroharyngeal pain, patients with event ([1]; 4 mg twice daily): 3 | Oroharyngeal pain, percent of patients ([1]; 4 mg twice daily): (10.3%) | Upper respiratory tract infection, patients with event ([1]; 4 mg twice daily): 2 | Upper respiratory tract infection, percent of patients ([1]; 4 mg twice daily): (6.9%) | Acne, patients with event ([1]; 8 mg twice daily): 4 | Acne, percent of patients ([1]; 8 mg twice daily): (10.5%) | Blood creatine phosphokinase increased, patients with event ([1]; 8 mg twice daily): 2 | Blood creatine phosphokinase increased, percent of patients ([1]; 8 mg twice daily): (5.3%) | Cough, patients with event ([1]; 8 mg twice daily): 1 | Cough, percent of patients ([1]; 8 mg twice daily): (2.6%) | Diarrhoea, patients with event ([1]; 8 mg twice daily): 1 | Diarrhoea, percent of patients ([1]; 8 mg twice daily): (2.6%) | Folliculitis, patients with event ([1]; 8 mg twice daily): 2 | Folliculitis, percent of patients ([1]; 8 mg twice daily): (5.3%) | Headache, patients with event ([1]; 8 mg twice daily): 10 | Headache, percent of patients ([1]; 8 mg twice daily): (26.3%) | LDL increase, patients with event ([1]; 8 mg twice daily): 4 | LDL increase, percent of patients ([1]; 8 mg twice daily): (10.5%) | Nasopharyngitis, patients with event ([1]; 8 mg twice daily): 3 | Nasopharyngitis, percent of patients ([1]; 8 mg twice daily): (7.9%) | Nausea, patients with event ([1]; 8 mg twice daily): 4 | Nausea, percent of patients ([1]; 8 mg twice daily): (10.5%) | Oroharyngeal pain, patients with event ([1]; 8 mg twice daily): 2 | Oroharyngeal pain, percent of patients ([1]; 8 mg twice daily): (5.3%) | Upper respiratory tract infection, patients with event ([1]; 8 mg twice daily): 2 | Upper respiratory tract infection, percent of patients ([1]; 8 mg twice daily): (5.3%) | Acne, patients with event ([1]; 12 mg twice daily): 6 | Acne, percent of patients ([1]; 12 mg twice daily): (16.7%) | Blood creatine phosphokinase increased, patients with event ([1]; 12 mg twice daily): 1 | Blood creatine phosphokinase increased, percent of patients ([1]; 12 mg twice daily): (2.8%) | Cough, patients with event ([1]; 12 mg twice daily): 2 | Cough, percent of patients ([1]; 12 mg twice daily): (5.6%) | Diarrhoea, patients with event ([1]; 12 mg twice daily): 0 | Folliculitis, patients with event ([1]; 12 mg twice daily): 1 | Folliculitis, percent of patients ([1]; 12 mg twice daily): (2.8%) | Headache, patients with event ([1]; 12 mg twice daily): 7 | Headache, percent of patients ([1]; 12 mg twice daily): (19.4%) | LDL increase, patients with event ([1]; 12 mg twice daily): 0 | Nasopharyngitis, patients with event ([1]; 12 mg twice daily): 9 | Nasopharyngitis, percent of patients ([1]; 12 mg twice daily): (25.0%) | Nausea, patients with event ([1]; 12 mg twice daily): 1 | Nausea, percent of patients ([1]; 12 mg twice daily): (2.8%) | Oroharyngeal pain, patients with event ([1]; 12 mg twice daily): 1 | Oroharyngeal pain, percent of patients ([1]; 12 mg twice daily): (2.8%) | Upper respiratory tract infection, patients with event ([1]; 12 mg twice daily): 7 | Upper respiratory tract infection, percent of patients ([1]; 12 mg twice daily): (19.4%) | serious adverse events ([1]; 4, 8 and 12 mg BID, 24 weeks): no serious adverse events | tolerability of treatment ([1]; 4, 8 and 12 mg BID, 24 weeks): generally well-tolerated | Grade 3/4 hematology events ([1]; preliminary analysis, total, distributed equally across the placebo, 4 mg and 8 mg groups): 3 | SALT score ([2]; one subject, 24 mg QD for approximately 9 months, prior to dose reduction): zero | SALT score ([2]; same subject, after approximately 7 months at the reduced dose of 8 mg BID): 7.92 | separation from placebo on all measures ([3]; 4 mg BID): failed to separate from placebo on all measures | patients who achieved a ≥50% reduction in their overall SALT score ([3]; 4 mg BID): 21% | difference from placebo on all SALT measures ([3]; 8 mg BID): significantly different from placebo | patients who achieved a ≥75% reduction in their overall SALT score ([3]; 8 mg BID): 29% | patients who achieved a ≥90% reduction in their overall SALT score ([3]; 8 mg BID): 16% | patients who achieved a ≥50% reduction in their overall SALT score ([3]; 8 mg BID): 47% | significant changes in SALT score compared to placebo observed starting at ([3]; 8 mg cohort): 12 weeks | 12 mg BID dose compared to the 8 mg BID dose ([3]; 12 mg BID vs 8 mg BID): numerically superior and generally produced faster onset and greater effect | difference from placebo on all SALT measures ([3]; 12 mg BID): significantly different from placebo | patients who achieved a ≥75% reduction in their overall SALT score ([3]; 12 mg BID): 42% | patients who achieved a ≥90% reduction in their overall SALT score ([3]; 12 mg BID): 36% | patients who achieved a ≥50% reduction in their overall SALT score ([3]; 12 mg BID): 58% | significant changes in SALT score compared to placebo observed starting at ([3]; 12 mg cohort): 12 weeks
